Data published in paper PMC5571287 (Antimicrobial Agents and Chemotherapy, 2017).
Where two headings read alike, the source gives them in different places.

How the values were obtained:
[1] = tested on: RSV B WST; assay: CPE assay, RSV B Washington in HEp-2 cells (resazurin); type: cell-based, respiratory syncytial virus; settings: human respiratory syncytial virus, HEp-2
[2] = tested on: RSV A 1997/12-35; assay: CPE 1, resazurin 384-well CPE assay in HEp-2; type: cell-based; settings: human respiratory syncytial virus
Method: (§1) For known clinical strains (RSV A 1997/12-35, 2001/2-20, 200/3-4, and Memphis 37), a 384-well-format resazurin-based CPE assay was conducted.

[3] = tested on: RSV A 2000/3-4; assay: CPE 1, resazurin 384-well CPE assay in HEp-2; type: cell-based; settings: human respiratory syncytial virus
Method: as §1

[4] = tested on: RSV A 2001/2-20; assay: CPE 1, resazurin 384-well CPE assay in HEp-2; type: cell-based; settings: human respiratory syncytial virus
Method: as §1

[5] = tested on: RSV A Memphis 37c; assay: CPE 1, resazurin 384-well CPE assay in HEp-2; type: cell-based; settings: human respiratory syncytial virus
Method: as §1

[6] = tested on: RSV A 1998/3-2; assay: CPE 2, neutral red 96-well CPE assay in HEp-2; type: cell-based; settings: human respiratory syncytial virus
Method: (§2) For RSV A 2001/3-12, 1998/3-2, and USU⃥v1225, CPE was induced in HEp-2 cells for 7 days and the plates were then stained with neutral red dye for approximately 2 h. The intracellular incorporated dye was extracted in 50:50 Sorensen citrate buffer-ethanol and the absorbance read on a spectrophotometer. The optical density (OD) of test wells was converted to percentage of cell and virus controls. […] The virus inocula were ∼63 50% cell culture infectious doses (CCID50) per well for 2001/3-12, ∼40 CCID50/well for 1998/3-2, and ∼32 CCID50/well for USU\v1225. This assay was conducted in Utah State University (Logan, UT).

[7] = tested on: RSV A 2001/3-12; assay: CPE 2, neutral red 96-well CPE assay in HEp-2; type: cell-based; settings: human respiratory syncytial virus
Method: as §2

[8] = tested on: RSV A USU\v1225; assay: CPE 2, neutral red 96-well CPE assay in HEp-2; type: cell-based; settings: human respiratory syncytial virus
Method: as §2

[9] = tested on: known RSV A clinical isolates; assay: CPE assays, known RSV A clinical isolates in HEp-2; type: cell-based; settings: human respiratory syncytial virus, read-out: IC50, range over known RSV A clinical isolates
Method: as §2, §1

[10] = tested on: RSVA 689; assay: microbe, parasite or virus in culture; type: cell-based; settings: human respiratory syncytial virus, RSVA 689, clinical
[11] = tested on: RSVA 492; assay: microbe, parasite or virus in culture; type: cell-based; settings: human respiratory syncytial virus, RSVA 492, clinical
[12] = tested on: RSVB 1262; assay: microbe, parasite or virus in culture; type: cell-based; settings: human respiratory syncytial virus, RSVB 1262, clinical
[13] = tested on: RSVB 1000; assay: microbe, parasite or virus in culture; type: cell-based; settings: human respiratory syncytial virus, RSVB 1000, clinical, 3 parameter curve fit
[14] = tested on: RSV A Long; assay: microbe, parasite or virus in culture; type: cell-based, respiratory syncytial virus
[15] = tested on: PIV3 (C243 strain); assay: organism not typed; type: cell-based, parainfluenza virus 3; settings: PIV3, LLC-MK2 7.1
[16] = tested on: Influenza virus H1N1 (A/PR/34 strain); assay: microbe, parasite or virus in culture; type: cell-based; settings: Influenza virus H1N1, A549
[17] = tested on: Rhinovirus 16; assay: microbe, parasite or virus in culture; type: cell-based, human rhinovirus; settings: Rhinovirus 16, HeLa
[18] = tested on: HIV-1 (IIIB strain); assay: microbe, parasite or virus in culture; type: cell-based, human immunodeficiency virus type 1; settings: HIV-1, CEM-SS
[19] = target: RSV RdRp activity in crude RSV A L-P complex (Human respiratory syncytial virus A, UniProt P28887); assay: biochemical; settings: read-out: RdRp activity IC90
[20] = target: human polymerase β (Homo sapiens, UniProt P06746); assay: Human polymerase inhibition in vitro (data not shown); type: biochemical; settings: up to 1 μM
[21] = target: human polymerase γ (Homo sapiens, UniProt P54098); assay: as above; type: biochemical; settings: up to 1 μM
[22] = in vitro; settings: African green monkey
[23] = Cell viability in HEp-2 cells (resazurin); settings: human, HEp-2 cells
[24] = tested on: HEp-2 cells; assay: Cell viability in HEp-2 cells (resazurin); settings: concentrations up to 14 μM
[25] = tested on: RSVA 1211; settings: human respiratory syncytial virus
[26] = tested on: RSVA 689; settings: human respiratory syncytial virus
[27] = tested on: RSVA 492; settings: human respiratory syncytial virus
[28] = tested on: RSVB 1276; settings: human respiratory syncytial virus
[29] = tested on: RSVB 1262; settings: human respiratory syncytial virus
[30] = tested on: RSVB 1000; settings: human respiratory syncytial virus
[31] = tested on: Wild type RSVA2 (vehicle control virus); assay: CPE assay, vehicle control (wild type) RSV A2 virus; settings: human respiratory syncytial virus
[32] = HEp-2, read-out: RSV titre in supernatant IC50 (0.3 Log PFUe reduction) (converted)
[33] = HEp-2, read-out: RSV titre in supernatant IC90 (1 Log PFUe reduction) (converted)

Chain of human polymerase γ (P54098 whole entry): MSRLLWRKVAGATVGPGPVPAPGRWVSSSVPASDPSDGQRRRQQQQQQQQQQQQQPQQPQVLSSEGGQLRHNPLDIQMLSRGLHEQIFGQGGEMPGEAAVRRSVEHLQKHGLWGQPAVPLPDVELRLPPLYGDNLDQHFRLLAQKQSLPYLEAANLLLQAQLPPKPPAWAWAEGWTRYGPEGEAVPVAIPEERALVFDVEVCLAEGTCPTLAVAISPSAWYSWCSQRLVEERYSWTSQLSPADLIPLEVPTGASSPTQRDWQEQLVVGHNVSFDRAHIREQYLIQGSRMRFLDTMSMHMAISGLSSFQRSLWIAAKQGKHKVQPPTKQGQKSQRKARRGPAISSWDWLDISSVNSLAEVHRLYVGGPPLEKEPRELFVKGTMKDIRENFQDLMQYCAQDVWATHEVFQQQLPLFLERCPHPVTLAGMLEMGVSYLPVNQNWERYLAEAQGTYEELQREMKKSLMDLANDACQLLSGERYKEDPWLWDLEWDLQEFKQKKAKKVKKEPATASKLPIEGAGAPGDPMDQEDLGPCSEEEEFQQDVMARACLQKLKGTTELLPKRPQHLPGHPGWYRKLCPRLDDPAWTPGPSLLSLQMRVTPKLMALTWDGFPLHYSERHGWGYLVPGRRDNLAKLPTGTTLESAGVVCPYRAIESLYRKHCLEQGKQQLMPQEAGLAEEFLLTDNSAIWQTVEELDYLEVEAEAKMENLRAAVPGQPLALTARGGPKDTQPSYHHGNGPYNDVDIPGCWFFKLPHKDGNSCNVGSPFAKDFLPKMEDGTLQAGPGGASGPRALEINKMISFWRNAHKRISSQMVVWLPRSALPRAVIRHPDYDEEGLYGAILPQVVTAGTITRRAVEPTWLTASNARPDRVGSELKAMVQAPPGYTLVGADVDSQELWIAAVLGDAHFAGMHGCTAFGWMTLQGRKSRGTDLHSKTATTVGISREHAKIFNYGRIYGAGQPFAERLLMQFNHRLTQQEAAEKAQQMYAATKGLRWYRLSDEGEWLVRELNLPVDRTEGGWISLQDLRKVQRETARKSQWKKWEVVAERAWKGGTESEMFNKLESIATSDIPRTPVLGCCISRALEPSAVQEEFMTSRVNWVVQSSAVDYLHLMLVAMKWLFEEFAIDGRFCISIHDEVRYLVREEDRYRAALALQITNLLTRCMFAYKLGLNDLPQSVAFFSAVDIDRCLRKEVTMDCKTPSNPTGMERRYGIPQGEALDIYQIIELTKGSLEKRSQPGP
Chain of RSV RdRp activity in crude RSV A L-P complex (P28887 whole entry): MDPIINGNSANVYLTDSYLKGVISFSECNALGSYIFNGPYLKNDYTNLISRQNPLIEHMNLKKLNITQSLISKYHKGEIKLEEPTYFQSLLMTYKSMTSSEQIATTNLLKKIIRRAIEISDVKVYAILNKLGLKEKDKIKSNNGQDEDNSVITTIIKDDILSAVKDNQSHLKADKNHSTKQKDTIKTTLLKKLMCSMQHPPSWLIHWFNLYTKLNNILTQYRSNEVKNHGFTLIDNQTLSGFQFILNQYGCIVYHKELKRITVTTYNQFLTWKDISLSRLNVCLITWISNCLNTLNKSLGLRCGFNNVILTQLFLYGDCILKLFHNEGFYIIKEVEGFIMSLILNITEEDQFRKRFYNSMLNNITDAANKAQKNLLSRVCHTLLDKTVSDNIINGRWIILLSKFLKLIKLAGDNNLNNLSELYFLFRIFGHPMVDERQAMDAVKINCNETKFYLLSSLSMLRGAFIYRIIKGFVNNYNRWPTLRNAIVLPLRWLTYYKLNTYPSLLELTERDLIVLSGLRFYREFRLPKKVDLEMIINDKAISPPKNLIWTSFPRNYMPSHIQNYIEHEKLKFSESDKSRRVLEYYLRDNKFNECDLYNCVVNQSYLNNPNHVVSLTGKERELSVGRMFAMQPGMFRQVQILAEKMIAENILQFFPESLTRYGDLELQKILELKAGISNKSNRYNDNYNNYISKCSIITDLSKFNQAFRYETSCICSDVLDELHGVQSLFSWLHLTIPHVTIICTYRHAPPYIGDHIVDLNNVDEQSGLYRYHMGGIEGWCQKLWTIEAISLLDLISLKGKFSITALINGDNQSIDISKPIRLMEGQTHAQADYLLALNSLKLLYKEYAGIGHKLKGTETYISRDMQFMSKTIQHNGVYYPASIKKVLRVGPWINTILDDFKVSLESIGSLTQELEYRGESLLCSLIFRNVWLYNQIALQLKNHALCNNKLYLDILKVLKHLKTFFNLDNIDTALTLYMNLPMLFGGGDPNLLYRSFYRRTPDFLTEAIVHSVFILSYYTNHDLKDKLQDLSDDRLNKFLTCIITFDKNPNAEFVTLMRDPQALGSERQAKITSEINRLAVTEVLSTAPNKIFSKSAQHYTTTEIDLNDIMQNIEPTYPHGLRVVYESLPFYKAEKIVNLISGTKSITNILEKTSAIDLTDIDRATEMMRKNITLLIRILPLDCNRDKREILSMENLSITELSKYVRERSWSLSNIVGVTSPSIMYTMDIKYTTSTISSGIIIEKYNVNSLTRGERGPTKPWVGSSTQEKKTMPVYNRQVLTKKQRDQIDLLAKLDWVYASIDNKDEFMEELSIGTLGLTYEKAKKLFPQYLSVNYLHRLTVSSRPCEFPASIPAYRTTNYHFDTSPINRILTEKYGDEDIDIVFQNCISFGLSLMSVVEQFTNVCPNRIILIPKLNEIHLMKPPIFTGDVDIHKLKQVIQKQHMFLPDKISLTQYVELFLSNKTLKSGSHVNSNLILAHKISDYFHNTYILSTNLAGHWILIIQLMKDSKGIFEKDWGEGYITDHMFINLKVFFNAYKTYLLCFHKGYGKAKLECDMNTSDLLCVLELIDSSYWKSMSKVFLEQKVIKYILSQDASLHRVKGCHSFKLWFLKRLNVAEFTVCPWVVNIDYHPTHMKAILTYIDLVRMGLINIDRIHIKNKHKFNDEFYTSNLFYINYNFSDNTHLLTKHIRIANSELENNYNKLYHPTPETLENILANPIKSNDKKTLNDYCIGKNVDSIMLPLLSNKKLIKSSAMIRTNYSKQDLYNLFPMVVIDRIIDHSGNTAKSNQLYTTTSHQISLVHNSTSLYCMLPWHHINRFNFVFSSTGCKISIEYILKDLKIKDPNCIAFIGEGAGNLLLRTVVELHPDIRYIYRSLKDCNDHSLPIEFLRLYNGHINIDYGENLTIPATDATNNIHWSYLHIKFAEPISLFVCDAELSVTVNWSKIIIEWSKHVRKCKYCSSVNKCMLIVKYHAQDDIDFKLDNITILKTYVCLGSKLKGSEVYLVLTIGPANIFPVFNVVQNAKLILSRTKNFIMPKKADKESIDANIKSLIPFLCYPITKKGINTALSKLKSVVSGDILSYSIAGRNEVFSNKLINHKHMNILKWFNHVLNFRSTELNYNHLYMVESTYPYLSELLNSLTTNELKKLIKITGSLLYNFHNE
Chain of RSV RdRp activity in crude RSV A L-P complex (P03421 whole entry, further chain): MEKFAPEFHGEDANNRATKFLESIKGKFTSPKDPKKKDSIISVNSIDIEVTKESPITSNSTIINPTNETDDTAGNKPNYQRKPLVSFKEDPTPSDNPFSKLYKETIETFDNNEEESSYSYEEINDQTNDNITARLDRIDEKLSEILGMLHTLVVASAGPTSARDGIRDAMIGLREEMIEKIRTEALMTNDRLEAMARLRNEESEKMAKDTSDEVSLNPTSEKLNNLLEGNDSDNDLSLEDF

## Cc1cnc(N2CC3(CCOCC3)C2)c(C(=O)Nc2ccc(C(=O)N3CCc4cc(C(=O)Nc5c(C)cccc5F)sc4-c4ccccc43)cc2)c1 [PC786, N-(2-fluoro-6-methylphenyl)-6-(4-(5-methyl-2-(7-oxa-2-azaspiro[3.5]nonan-2-yl)nicotinamido)benzoyl)-5,6-dihydro-4H-benzo[b]thieno[2,3-d]azepine-2-carboxamide]
[1]
  IC50: 27.3 ± 0.77 nM
  IC90: 57.1 ± 3.87 nM
[2]
  IC50: 0.35 nM
[3]
  IC50: 0.14 nM
[4]
  IC50: 0.53 nM
[5]
  IC50: 0.5 nM
[6]
  IC50: 2.5 nM
[7]
  IC50: 3.2 nM
[8]
  IC50: 1.3 nM
[9]
  IC50: 0.14 to 3.2 nM
[10]; read-out: CPE IC50
  IC50: 0.5 nM
[10]; read-out: CPE IC90
  IC90: 0.6 nM
[11]; read-out: CPE IC50
  IC50: 0.42 nM
[11]; read-out: CPE IC90
  IC90: 0.57 nM
[12]; read-out: CPE IC50
  IC50: 14.5 nM
[12]; read-out: CPE IC90
  IC90: 692 nM
[13]; read-out: CPE IC50
  IC50: 13.4 nM
[13]; read-out: CPE IC90
  IC90: 342 nM
[14]; HEp-2
  IC90 or IC95: <0.42 nM
[14]; human respiratory syncytial virus, HEp-2, plaque reduction, applied 2 h before infection
  IC50: < 0.42 nM
[15]
  IC50: > 14000 nM
  IC90 or IC95: >14000 nM
[16]
  IC90 or IC95: >14000 nM
[16]; unidentified influenza virus
  IC50: > 14000 nM
[17]; Enterovirus
  IC50: > 14000 nM
[17]
  IC90 or IC95: >14000 nM
[18]
  IC90 or IC95: >14000 nM
[18]; Human immunodeficiency virus 1, IIIB
  IC50: > 14000 nM
[19]
  IC90: 21.8 nM
[20]
  inhibitory effects on human polymerase β: no measurable inhibitory effects
[21]
  inhibitory effects on human polymerase γ: no measurable inhibitory effects
[22]
  CC50: > 14000 nM
[23]
  CC50: > 14000 nM
[24]
  Cell viability: did not affect cell viability
[25]; [32]
  IC50: < 0.09 nM
[25]; [33]
  IC90: 1.05 nM
[26]; [32]
  IC50: 0.54 nM
[26]; [33]
  IC90: 1.12 nM
[27]; [32]
  IC50: 0.43 nM
[27]; [33]
  IC90: 0.5 nM
[28]; [32]
  IC50: 15.1 nM
[28]; [33]
  IC90: 22.5 nM
[29]; [32]
  IC50: 9.36 nM
[29]; [33]
  IC90: 12.3 nM
[30]; [32]
  IC50: 10.3 nM
[30]; [33]
  IC90: 12.4 nM
[31]; read-out: Wild type RSVA2 IC50
  IC50: 0.027 nM
[31]; read-out: Wild type RSVA2 IC90
  IC90: 0.065 nM
